Format in all cases: biochemical
One test deals with PKA (Homo sapiens, UniProt P17612). Briefly: Kinase profiling PKA. Particulars: read-out: residual kinase activity, PKA. An excerpt: (§1) Any value less that 25 is considered to be highly significant inhibition.
In another test the target is T1, PDK1 (Homo sapiens, UniProt O15530).
T1 sequence (O15530 1-556): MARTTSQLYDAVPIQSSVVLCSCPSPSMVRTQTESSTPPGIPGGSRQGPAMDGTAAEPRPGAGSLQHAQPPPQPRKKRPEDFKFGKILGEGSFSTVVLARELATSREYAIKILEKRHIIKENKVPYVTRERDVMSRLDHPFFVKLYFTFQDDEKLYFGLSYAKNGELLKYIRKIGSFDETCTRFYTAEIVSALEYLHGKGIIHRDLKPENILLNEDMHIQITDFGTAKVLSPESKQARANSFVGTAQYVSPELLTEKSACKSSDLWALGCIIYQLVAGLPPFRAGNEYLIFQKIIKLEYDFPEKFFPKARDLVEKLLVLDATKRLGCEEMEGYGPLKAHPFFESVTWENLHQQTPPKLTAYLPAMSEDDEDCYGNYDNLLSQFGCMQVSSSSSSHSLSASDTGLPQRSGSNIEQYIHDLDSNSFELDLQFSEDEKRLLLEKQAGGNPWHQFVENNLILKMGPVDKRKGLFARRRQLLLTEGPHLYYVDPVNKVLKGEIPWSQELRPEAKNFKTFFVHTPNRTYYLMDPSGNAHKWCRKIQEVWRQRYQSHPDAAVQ
Description: Kinase profiling PDK1. Particulars: read-out: residual kinase activity, PDK1.
Source text: as §1

In another test the target is EPH-A2 (Homo sapiens, UniProt P29317). Briefly: Kinase profiling EPH-A2. The conditions noted are these: read-out: residual kinase activity, EPH-A2.
Sequence of EPH-A2 (P29317 24-976, species assumed): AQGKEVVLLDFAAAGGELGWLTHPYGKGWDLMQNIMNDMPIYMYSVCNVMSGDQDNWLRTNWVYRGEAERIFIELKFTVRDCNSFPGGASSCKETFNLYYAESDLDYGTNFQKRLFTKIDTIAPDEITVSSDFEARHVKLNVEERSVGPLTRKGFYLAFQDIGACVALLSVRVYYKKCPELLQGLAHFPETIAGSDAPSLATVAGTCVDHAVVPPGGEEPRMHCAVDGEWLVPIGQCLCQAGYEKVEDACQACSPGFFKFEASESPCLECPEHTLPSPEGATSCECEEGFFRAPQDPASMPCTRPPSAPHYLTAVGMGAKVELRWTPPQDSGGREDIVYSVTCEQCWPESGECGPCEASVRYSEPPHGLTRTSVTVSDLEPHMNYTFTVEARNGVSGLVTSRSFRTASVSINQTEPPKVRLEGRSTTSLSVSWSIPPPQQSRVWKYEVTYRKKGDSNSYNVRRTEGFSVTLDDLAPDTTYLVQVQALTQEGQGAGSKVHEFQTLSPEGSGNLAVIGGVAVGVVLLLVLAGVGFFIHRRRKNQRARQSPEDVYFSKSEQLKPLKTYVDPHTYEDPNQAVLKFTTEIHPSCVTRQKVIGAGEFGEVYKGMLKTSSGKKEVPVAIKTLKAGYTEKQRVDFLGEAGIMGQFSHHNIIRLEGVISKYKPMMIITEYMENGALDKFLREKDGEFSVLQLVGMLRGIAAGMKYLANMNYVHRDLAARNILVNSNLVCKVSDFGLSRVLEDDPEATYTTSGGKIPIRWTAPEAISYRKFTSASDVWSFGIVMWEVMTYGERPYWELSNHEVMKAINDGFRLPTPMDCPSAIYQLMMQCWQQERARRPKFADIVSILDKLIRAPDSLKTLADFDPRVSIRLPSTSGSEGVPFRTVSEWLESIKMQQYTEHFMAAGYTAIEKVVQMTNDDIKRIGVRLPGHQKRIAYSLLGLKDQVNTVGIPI
Source text: as §1

A further test addresses CAMKKb (Homo sapiens, UniProt Q96RR4). Briefly: Kinase profiling CAMKKb. Particulars: read-out: residual kinase activity, CAMKKb.
Source text: as §1

In another test the target is p38a MAPK (Homo sapiens, UniProt Q16539). Briefly: Kinase profiling p38a MAPK. The conditions noted are these: read-out: residual kinase activity, p38a MAPK.
Source text: as §1

A further test addresses MSK1 (Homo sapiens, UniProt O75582). Description: Kinase profiling MSK1. Particulars: read-out: residual kinase activity, MSK1.
Source text: as §1

In another test the target is JAK2 (Homo sapiens, UniProt O60674). Briefly: Kinase profiling JAK2. The conditions noted are these: read-out: residual kinase activity, JAK2.
Source text: as §1

For a further test, the target named is Lck (Homo sapiens, UniProt P06239). Description: Kinase profiling Lck. The conditions noted are these: read-out: residual kinase activity, Lck.
Sequence of Lck (P06239 whole entry, species assumed): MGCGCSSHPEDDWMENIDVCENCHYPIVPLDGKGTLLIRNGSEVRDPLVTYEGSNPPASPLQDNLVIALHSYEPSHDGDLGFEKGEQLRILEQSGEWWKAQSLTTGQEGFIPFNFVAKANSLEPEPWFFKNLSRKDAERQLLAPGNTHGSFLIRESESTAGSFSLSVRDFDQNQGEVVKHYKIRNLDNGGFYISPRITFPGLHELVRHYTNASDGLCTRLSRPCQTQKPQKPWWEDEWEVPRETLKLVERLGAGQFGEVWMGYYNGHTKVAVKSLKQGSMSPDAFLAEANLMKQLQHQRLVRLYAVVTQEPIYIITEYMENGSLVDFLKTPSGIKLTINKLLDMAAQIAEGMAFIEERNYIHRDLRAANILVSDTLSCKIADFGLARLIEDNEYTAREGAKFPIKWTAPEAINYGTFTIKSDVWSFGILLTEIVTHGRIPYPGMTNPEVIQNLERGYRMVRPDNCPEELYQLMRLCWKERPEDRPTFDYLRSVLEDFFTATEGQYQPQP
Source text: as §1

The target in a further test is MKK1 (Homo sapiens, UniProt Q02750). Briefly: Kinase profiling MKK1. Particulars: read-out: residual kinase activity, MKK1.
Sequence of MKK1 (Q02750 whole entry, species assumed): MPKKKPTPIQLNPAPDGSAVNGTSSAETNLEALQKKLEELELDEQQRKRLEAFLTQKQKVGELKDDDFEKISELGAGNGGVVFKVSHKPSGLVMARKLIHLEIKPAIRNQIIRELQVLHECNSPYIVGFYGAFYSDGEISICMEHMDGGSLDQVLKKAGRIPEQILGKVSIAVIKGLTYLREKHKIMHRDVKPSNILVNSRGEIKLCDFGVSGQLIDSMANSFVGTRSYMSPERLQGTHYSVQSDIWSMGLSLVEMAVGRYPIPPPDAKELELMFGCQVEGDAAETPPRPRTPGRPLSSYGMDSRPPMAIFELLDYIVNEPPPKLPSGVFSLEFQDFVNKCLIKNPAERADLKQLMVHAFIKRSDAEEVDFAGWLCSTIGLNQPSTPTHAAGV
Source text: as §1

Another test deals with PKCa (Homo sapiens, UniProt P17252). Briefly: Kinase profiling PKCa. Particulars: read-out: residual kinase activity, PKCa.
Source text: as §1

The next test addresses MARK3 (Homo sapiens, UniProt P27448). Briefly: Kinase profiling MARK3. Particulars: read-out: residual kinase activity, MARK3.
Source text: as §1

A further test deals with PLK1 (Homo sapiens, UniProt P53350). Briefly: Kinase profiling PLK1. The conditions noted are these: read-out: residual kinase activity, PLK1.
Sequence of PLK1 (P53350 whole entry, species assumed): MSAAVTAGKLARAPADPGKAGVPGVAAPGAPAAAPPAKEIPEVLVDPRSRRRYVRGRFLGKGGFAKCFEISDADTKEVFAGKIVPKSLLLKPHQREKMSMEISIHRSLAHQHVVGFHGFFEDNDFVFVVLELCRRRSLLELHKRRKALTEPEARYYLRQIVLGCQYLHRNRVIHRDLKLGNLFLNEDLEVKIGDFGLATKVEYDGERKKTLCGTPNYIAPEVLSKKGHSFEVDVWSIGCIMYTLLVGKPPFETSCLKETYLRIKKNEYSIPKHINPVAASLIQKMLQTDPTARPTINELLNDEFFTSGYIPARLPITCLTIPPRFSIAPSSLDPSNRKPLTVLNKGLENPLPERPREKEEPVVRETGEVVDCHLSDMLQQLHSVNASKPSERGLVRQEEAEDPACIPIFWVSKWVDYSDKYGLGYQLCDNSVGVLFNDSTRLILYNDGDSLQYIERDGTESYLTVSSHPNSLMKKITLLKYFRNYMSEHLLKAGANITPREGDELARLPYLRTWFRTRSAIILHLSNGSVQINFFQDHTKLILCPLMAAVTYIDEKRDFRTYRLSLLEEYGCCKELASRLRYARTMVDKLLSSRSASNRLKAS
Source text: as §1

In a further test the target is T2, TBK1 (Homo sapiens, UniProt Q9UHD2).
T2 sequence (Q9UHD2 1-729): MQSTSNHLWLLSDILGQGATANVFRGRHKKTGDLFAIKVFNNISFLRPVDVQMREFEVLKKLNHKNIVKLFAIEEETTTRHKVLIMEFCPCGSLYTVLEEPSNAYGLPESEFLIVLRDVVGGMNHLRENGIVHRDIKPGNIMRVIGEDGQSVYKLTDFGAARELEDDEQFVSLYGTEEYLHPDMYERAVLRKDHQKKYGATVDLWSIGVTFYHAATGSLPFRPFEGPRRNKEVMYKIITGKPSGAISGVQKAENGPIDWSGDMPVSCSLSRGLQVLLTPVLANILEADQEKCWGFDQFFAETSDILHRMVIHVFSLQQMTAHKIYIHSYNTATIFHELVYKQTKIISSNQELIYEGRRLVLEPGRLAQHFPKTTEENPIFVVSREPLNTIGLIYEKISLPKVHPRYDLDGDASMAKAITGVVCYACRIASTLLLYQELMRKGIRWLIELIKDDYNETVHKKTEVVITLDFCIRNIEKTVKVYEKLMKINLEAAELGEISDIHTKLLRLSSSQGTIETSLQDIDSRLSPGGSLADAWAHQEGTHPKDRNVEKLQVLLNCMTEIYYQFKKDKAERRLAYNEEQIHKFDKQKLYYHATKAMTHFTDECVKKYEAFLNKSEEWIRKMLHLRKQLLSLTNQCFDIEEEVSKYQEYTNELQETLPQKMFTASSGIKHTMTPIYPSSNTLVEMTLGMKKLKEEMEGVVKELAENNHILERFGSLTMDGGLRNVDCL
Description: Kinase profiling TBK1. The conditions noted are these: read-out: residual kinase activity, TBK1.
Source text: as §1

The next test concerns the target RSK2 (Homo sapiens, UniProt P51812). Description: Kinase profiling RSK2. The conditions noted are these: read-out: residual kinase activity, RSK2.
Source text: as §1

The next test deals with EF2K (Homo sapiens, UniProt O00418). Description: Kinase profiling EF2K. Particulars: read-out: residual kinase activity, EF2K.
Source text: as §1

A further test has as its target BTK (Homo sapiens, UniProt Q06187). Description: Kinase profiling BTK. The conditions noted are these: read-out: residual kinase activity, BTK.
Source text: as §1

The target of another test is PKBa (Homo sapiens, UniProt P31749). Description: Kinase profiling PKBa. The conditions noted are these: read-out: residual kinase activity, PKBa.
Sequence of PKBa (P31749 whole entry): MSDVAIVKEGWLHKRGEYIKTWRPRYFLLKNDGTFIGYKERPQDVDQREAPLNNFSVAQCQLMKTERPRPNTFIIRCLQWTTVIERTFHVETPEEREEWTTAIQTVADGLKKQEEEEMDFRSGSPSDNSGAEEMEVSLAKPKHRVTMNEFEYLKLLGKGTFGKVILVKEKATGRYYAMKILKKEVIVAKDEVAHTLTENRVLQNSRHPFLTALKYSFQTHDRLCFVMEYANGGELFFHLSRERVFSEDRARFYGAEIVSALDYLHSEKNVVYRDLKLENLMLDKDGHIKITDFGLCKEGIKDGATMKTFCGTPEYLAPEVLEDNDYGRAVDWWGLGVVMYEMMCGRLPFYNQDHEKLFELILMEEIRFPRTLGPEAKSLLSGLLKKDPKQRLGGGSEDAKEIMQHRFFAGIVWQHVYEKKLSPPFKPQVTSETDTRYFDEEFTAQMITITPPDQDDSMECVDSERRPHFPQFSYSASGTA
Source text: as §1

The target of the next test is PAK4 (Homo sapiens, UniProt O96013). Description: Kinase profiling PAK4. The conditions noted are these: read-out: residual kinase activity, PAK4.
Source text: as §1

Another test has as its target p38b MAPK (Homo sapiens, UniProt Q15759). Description: Kinase profiling p38b MAPK. Particulars: read-out: residual kinase activity, p38b MAPK.
Source text: as §1

For the next test, the target named is SYK (Homo sapiens, UniProt P43405). Description: Kinase profiling SYK. The conditions noted are these: read-out: residual kinase activity, SYK.
Source text: as §1

A further test has as its target RIPK2 (Homo sapiens, UniProt O43353). Description: Kinase profiling RIPK2. Particulars: read-out: residual kinase activity, RIPK2.
Source text: as §1

The next test has as its target PIM1 (Homo sapiens, UniProt P11309). Description: Kinase profiling PIM1. Particulars: read-out: residual kinase activity, PIM1.
Source text: as §1

The target in another test is DYRK1A (Homo sapiens, UniProt Q13627). Description: DYRK 1A assay (kinase profiling). The conditions noted are these: read-out: residual kinase activity, DYRK1A. As for the experimental part:
Assays are stopped by addition of 5 μl of 0.5 M (3%) orthophosphoric acid and then harvested onto P81 Unifilter plates with a wash buffer of 50 mM orthophosphoric acid.
as §1

The next test deals with CHK2 (Homo sapiens, UniProt O96017). Description: Kinase profiling CHK2. Particulars: read-out: residual kinase activity, CHK2.
Source text: as §1

The mark [1] stands for this setting: 100 micromolar inhibitor concentration, 100 is no change.
Where [2] appears, read: 100 micromolar inhibitor, 100 = no change.

Read-outs that look alike come from different tables or passages of the source.

Sequence of RSK2 (P51812 whole entry, species assumed): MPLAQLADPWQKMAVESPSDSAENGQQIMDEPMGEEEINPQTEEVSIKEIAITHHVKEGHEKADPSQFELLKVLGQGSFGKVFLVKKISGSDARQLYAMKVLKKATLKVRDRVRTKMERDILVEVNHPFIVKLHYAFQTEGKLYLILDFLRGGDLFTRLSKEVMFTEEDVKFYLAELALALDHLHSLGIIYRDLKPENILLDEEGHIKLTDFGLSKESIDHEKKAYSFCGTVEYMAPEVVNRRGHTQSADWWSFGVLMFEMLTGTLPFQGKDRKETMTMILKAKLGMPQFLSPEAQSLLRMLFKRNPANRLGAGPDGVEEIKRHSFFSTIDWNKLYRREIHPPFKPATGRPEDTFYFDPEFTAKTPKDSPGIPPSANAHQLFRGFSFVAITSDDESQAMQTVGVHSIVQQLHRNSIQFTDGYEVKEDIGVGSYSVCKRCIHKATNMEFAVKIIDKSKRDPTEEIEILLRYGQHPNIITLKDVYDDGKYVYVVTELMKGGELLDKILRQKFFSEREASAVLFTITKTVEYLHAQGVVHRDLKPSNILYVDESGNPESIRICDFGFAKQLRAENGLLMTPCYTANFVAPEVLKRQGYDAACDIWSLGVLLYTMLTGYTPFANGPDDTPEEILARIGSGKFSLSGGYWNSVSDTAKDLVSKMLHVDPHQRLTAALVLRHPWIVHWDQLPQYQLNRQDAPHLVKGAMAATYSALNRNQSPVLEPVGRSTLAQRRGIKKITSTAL
Sequence of p38b MAPK (Q15759 whole entry): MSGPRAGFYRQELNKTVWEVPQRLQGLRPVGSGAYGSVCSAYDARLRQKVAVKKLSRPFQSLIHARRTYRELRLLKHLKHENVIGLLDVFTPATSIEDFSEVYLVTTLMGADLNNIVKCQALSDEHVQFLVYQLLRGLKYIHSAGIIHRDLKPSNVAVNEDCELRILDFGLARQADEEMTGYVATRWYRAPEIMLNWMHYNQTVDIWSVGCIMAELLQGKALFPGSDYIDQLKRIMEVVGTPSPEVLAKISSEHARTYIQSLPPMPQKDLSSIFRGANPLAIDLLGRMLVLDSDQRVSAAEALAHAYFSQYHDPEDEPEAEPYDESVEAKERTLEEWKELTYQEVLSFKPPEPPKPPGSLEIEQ
Sequence of MSK1 (O75582 whole entry, species assumed): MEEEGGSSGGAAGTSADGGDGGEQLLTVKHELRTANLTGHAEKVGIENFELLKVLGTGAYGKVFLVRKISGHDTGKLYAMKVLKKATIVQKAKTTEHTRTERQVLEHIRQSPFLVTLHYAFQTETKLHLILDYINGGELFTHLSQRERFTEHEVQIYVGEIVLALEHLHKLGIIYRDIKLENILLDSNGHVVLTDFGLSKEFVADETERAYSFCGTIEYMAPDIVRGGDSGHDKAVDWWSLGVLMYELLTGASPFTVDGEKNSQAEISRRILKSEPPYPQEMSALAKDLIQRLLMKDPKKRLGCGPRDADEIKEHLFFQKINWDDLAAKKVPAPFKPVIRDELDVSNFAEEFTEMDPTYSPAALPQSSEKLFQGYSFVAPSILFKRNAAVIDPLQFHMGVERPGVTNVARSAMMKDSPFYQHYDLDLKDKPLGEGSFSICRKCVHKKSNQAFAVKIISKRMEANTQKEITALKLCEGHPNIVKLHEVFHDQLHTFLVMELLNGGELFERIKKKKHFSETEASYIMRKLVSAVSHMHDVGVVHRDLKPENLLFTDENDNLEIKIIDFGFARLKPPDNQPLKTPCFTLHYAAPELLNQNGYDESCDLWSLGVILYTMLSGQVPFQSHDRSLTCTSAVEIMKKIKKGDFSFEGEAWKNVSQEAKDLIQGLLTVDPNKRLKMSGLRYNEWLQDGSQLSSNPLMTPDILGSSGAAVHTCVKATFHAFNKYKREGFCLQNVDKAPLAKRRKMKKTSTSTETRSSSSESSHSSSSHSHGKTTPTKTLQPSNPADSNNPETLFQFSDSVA

Regarding `CC(=O)Nc1nc2ccc(C#N)cc2s1` [Compound 01-94], the remaining activity at 100 µM at PKA (setting [1]) was 93%; on PDK1 (setting [1]) it was 97%; on EPH-A2 (setting [1]) it was 73%; on CAMKKb (setting [1]) it was 35%; at p38a MAPK (setting [1]) it was 102%; on MSK1 (setting [1]) it was 81%. For the same molecule, the remaining activity at 100 µM turned out to be 33% at JAK2 (setting [1]); 168% on Lck (setting [1]); 34% at MKK1 (setting [1]); 93% at PKCa (setting [1]); 50% on MARK3 (setting [1]); 108% at PLK1 (setting [1]). Further, the remaining activity at 100 µM worked out at 41% on TBK1 (setting [1]); 87% on RSK2 (setting [1]); 98% at EF2K (setting [1]); 98% on BTK (setting [1]); 95% on PKBa; 34% at PAK4 (setting [1]). Further, the remaining activity at 100 µM at p38b MAPK (setting [1]) came to 100%; at SYK (setting [1]), 86%; on RIPK2 (setting [1]) it was 17%; at PIM1 (setting [1]) it was 26%; at DYRK1A (setting [1]) it was 9%; at CHK2 (setting [1]) it was 30%.
Take `CC(=O)Nc1cccc(NC(=O)c2nc3ccc(O)cc3s2)c1` [Compound 03-07, N-(3-acetamidophenyl)-6-hydroxybenzo[d]thiazole-2-carboxamide]: the remaining activity at 100 µM at PKA (setting [2]) was determined as 91%; on PDK1 (setting [2]), 72%; on EPH-A2 (setting [2]), 88%; on CAMKKb (setting [2]) it was 30%; on p38a MAPK (setting [2]), 93%; at MSK1 (setting [2]), 62%. Also, the remaining activity at 100 µM on JAK2 (setting [2]) came out at 56%; on Lck (setting [2]), 88%; on MKK1 (setting [2]), 85%; on PKCa (setting [2]), 81%; at MARK3 (setting [2]), 72%; at PLK1 (setting [2]) it was 93%. Further, the remaining activity at 100 µM at TBK1 (setting [2]) was 92%; on RSK2 (setting [2]), 71%; at EF2K (setting [2]) it was 91%; on BTK (setting [2]) it was 32%; at PKBa (setting [2]), 103%; at PAK4 (setting [2]), 92%. The remaining activity at 100 µM on p38b MAPK (setting [2]) amounted to 96%; at SYK (setting [2]), 102%; on RIPK2 (setting [2]) it was 18%; on PIM1 (setting [2]) it was 25%; on DYRK1A (setting [2]) it was 30%; at CHK2 (setting [2]), 23%.

The values are drawn from patent publication US10231954B2, “Neurodegenerative therapies” (LYTIX BIOPHARMA AS, priority 2014, dated 2019).
